The values that follow come from patent publication US9840483B2, “Radiomitigating pharmaceutical formulations” (The Regents of the University of California, priority 2013, dated 2017).

Values after ≈ are worked out from the molar mass of the structure shown.

The test system of data set [1] is Til-1 murine lymphocyte cells. In words: Mitigation of radiation-induced apoptosis in vitro: viability of irradiated Til-1 cells (ATPlite) screen. Format: cell-based. Conditions: Mus musculus, light or radiation study, added 1 hour after 2 Gy, viability 24 h after radiation, relative to control irradiated value (100%), read-out: In Vitro (Mitigation cell viability %). The protocol:
The ability of compounds from Example 1 to mitigate radiation-induced apoptosis in vitro relative to control values (100%) is shown in FIG. 1. Briefly, 100,000 small-molecules were screened at 10 μM final concentration in 1% dimethylsulfoxide (DMSO) using the viability of a murine lymphocyte line as a readout (Mitigation cell viability %). Ten thousand Til-1 murine lymphocyte cells were dispensed into each well of 384-well plates using a Multidrop 384 (Thermo Scientific, Waltham, Mass.) The Til-1 cells were irradiated at the dose of 2 Gy. After 1 hour, the small-molecules were added. Twenty-four hours after the radiation, cell viability was assayed by luminesce-based measurement of ATP production (ATPlite, Perkin-Elmer, Waltham, Mass.) with a SpectraMax M5 microplate reader (Molecular Devices, Sunnyvale, Calif.). The Z′ factor for the assay was >0.5. See Zhang, J. H., Chung, T. D., Oldenburg, K. R. “A Simple Statistical Parameter for Use in Evaluation and Validation of High Throughput Screening Assays,” J Biomol Screen 4:67, 1999. A positive readout was >130% of the control irradiated value.

The next data set is described as follows: Solubility. Format: physicochemical.
Data set [2] concerns C3Hf/Kam and C57B16/J mice. In words: Animal Whole Body Irradiation (WBI) assay, mitigation of lethality. Format: in vivo. The protocol:
Briefly, Animal Whole Body Irradiation (WBI) Assays were conducted with C3Hf/Kam and C57B16/J mice. The mice were bred and maintained in a strict gnotobiotic environment in the American Association of Laboratory Animal Care-Accredited Animal Facilities of Department of Radiation Oncology, UCLA. The Animal Care and Use Committee approved all experiments, which were performed in accordance with all local and national guidelines for the care and use of animals. Mice, 9-12 weeks old, were given WBI using a Gamma cell 40 irradiator (Cs137 source; Atomic Energy of Canada, Ltd.) at a dose rate of […]. Mice were monitored for at least 30 days and defined criteria for humane euthanasia was used as an endpoint.
Compounds were typically dissolved in 15 μL DMSO and suspended in 1 mL of 1% Cremphor EL in water for administration in 0.2 mL volumes. […] All mice, including controls, received the same diluent as the experimental groups. The chosen compounds were administered to the mice 5 times at 24 h intervals, starting 24 hours after WBI at LD70/30 (7.725 Gy for the C3H strain) doses. Similar data were obtained with a single dose and at 48 hours after radiation exposure in both mouse strains. Both subcutaneous and oral routes were effective. The compounds provided greatly elevated animals survival level as compared to control group.
Dose response experiments were executed in a manner similar to the WBI Assay described in Example 3. […] Both Compound 2 (53555.12) and Compound 3 (5346360) were effective in C57Bl/6 female mice in this case mitigating against LD70/30 doses of 8.509 Gy due to the relative radioresistance of this strain relative to C3Hs. […] When given orally by gavage, Compound 2 (535551.2) in 5 daily doses starting at 24 hours post-WBI was effective at 5 mg/kg in both C3H and C57Bl/6 strains, but not at 25 mg/kg.
Probit analyses of the effect of varying the radiation dose with Compound 2 (5355512) (5 mg/kg), and Compound 3 (5346360) (5 mg/kg), or 5 (5116319) (75 mg/kg) given subcutaneously for 5 days starting 24 hours after WBI, is shown in FIG. 6, with 95% confidence limits shown for LD50 values. The dose-response curves are steep with the dose modifying factors varying with the level of effect and drug, but were in the range 1.04-1.09. Such factors have to be considered against the level of the control and the reason for lethality. In this case, hematological insufficiency and not infection is the cause of death and as a result the radioresistance of the C3H strain is relatively high.
Compounds P1, P2, and P3, analogs of Compound 2 (5355512), were synthesized according to standard protocols. […] The analogs were injected subcutaneously 5 times over 5 clays at 5 mg/kg. Compound P2 elicited 100% survival after 30 days.

Data set [3] is described as follows: Breakdown products identified in vivo by mass spectrometry. Conditions: analog of Compound 2.
The next data set relates to TNF-α production. Kind of data set: TNF-α production by LPS-stimulated peritoneal macrophages (ELISA). The format is cell-based, murine. The note with it: added to stimulated peritoneal macrophages 1 hr after LPS, supernatants at 24 hrs, ELISA. The protocol:
NPSPs were tested for their anti-inflammatory ability using murine macrophages. […] Briefly, peritoneal macrophages (PMs) were induced by intraperitoneal, injection of 150 μg MIS416 (Innate Immunotherapeutics, NZ) and harvested on day 4 by peritoneal wash out with PBS. Culture supernatants were harvested at 24 hrs and cytokines tested by ELISA (BD Biosciences, SD).
(ELISA stands for enzyme-linked immunosorbent assay.)

The test system of the next data set is TNF-α mRNA. Kind of data set: Cytokine mRNA expression in LPS-stimulated bone marrow-derived macrophages (qPCR). Format: cell-based, murine. Conditions: added to bone marrow-derived macrophages 1 hr after LPS, RT-PCR. The procedure:
Additionally, bone marrow-derived macrophages (BMDMs) were derived by 7 days culture of marrow cells in medium containing 10% FBS and CSF-1 conditioned medium. The serum concentration was reduced to 2% FBS 16 h before stimulation with LPS for 30 min, treatment with drug and incubation for another 3.5 h (4 h total with LPS). Total cellular RNA was isolated by trizol and cDNA synthesized using iScript from BioRad. Gene expression was measured by qPCR and analyzed using the standard curve method, normalized to L32.

[4] abbreviates: injected subcutaneously 5 times over 5 days at 5 mg/kg.

Usually viability stands for a read-out of living cells in per cent, often relative to untreated cells. As usually defined, the solubility is how much of the substance goes into solution per volume. Read a low solubility as little dissolved substance. Turning to `O=[N+]([O-])c1ccc(S(=O)(=O)N2CCN(c3ccc(F)cc3)CC2)cc1` [Compound 1, 1-(4-fluorophenyl)-4-[(4-nitrobenzene)sulfonyl]piperazine], the viability at 10 µM in data set [1] was 188%. The amount in solution in “Solubility” (solubility) came to 26.6 µM (≈ 9.72 µg/mL).
Taken in the same sequence, the figures for `O=[N+]([O-])c1ccc(S(=O)(=O)N2CCN(C/C=C/c3ccccc3)CC2)cc1` [Compound 4, 1-[(4-nitrobenzene) Sulfonyl]-4-[(2E)-3-phenylprop-2-en-1-yl]piperazine] were 163% and 20.4 µM (≈ 7.9 µg/mL).
For `NCCNS(=O)(=O)c1ccc([N+](=O)[O-])cc1` [Compound P2], the Solubility in water result in “Solubility” is listed as “soluble in water”. The “Survival after 30 days” value in data set [2] (setting [4]) stood at 100%.
Regarding `O=[N+]([O-])c1ccc(S(=O)(=O)N2CCNCC2)cc1` [Compound P1], the Solubility in water entry in “Solubility” is recorded as “soluble in water”. Also, in data set [2] (setting [4]), the “Mitigation of WBI lethality by analogs” value is given as “effective”. For the same molecule, the Breakdown product identification result in data set [3] was “natural breakdown product identified in vivo”.
For the molecule `NCCCCCCCCNS(=O)(=O)c1ccc([N+](=O)[O-])cc1` [Compound P3], the Solubility in water entry in the data set “Solubility” is “soluble in water”.
For the molecule `CCN(CC)S(=O)(=O)c1ccc([N+](=O)[O-])cc1` [Compound 5, N,N-diethyl-4-nitrophenyl-1-sulfonamide], the viability at 10 µM in data set [1] is 161%. The same molecule had a solubility in the data set “Solubility” of 513 µM (≈ 132 µg/mL). In addition, the TNF-α production entry with TNF-α production is recorded as “able to inhibit TNF-α production”.
Consider `O=[N+]([O-])c1ccc(S(=O)(=O)N2CCN(c3cccc(Cl)c3)CC2)cc1` [Compound 3], for which the viability at 10 µM in data set [1] worked out at 174%. In addition, the concentration in solution in the data set “Solubility” (solubility) came to 6.5 µM (≈ 2.48 µg/mL). The “Mitigation of WBI lethality at 5 mg/kg” value in data set [2] (5 mg/kg injected subcutaneously) was “effective”. The “Most effective dose in dose response” value in data set [2] (C3H male mice, compared with 1, 2, 10, 40, or 75 mg/kg) is 5 mg/kg. The “Mitigation of WBI lethality in C57Bl/6 female mice” value in data set [2] (C57Bl/6 female mice, LD70/30 dose 8.509 Gy) is “effective”. In addition, in data set [2] (lowest dosage 5 mg/kg subcutaneously, superior to 40 and 75 mg/kg), the “Survivors at day 30” value is on record as 100%. Further, the “Mitigation of WBI lethality, oral gavage 5 mg/kg” value in data set [2] (orally by gavage, 5 daily doses starting 24 hours post-WBI, 5 mg/kg, C3H and C57Bl/6 strains) was “inactive”. Further, the “Mitigation of WBI lethality, oral gavage 25 mg/kg” value in data set [2] (orally by gavage, 5 daily doses starting 24 hours post-WBI, 25 mg/kg, C3H and C57Bl/6 strains) was “inactive”. Also, in data set [2] (single dose increased to 25 mg/kg, 24 hours after WBI), the “Effect of increasing the single dose” value is reported as “did not improve efficacy”. Also, the “Mitigation of WBI lethality, single dose” value in data set [2] (single dose of 5 mg/kg given 24 hours after WBI) was “effective”. The TNF-α production entry with TNF-α production is given as “inhibit TNF-α production”. Also, the “Expression of TNF-α mRNA and other cytokines” value in the data set with TNF-α mRNA was “inhibit expression of TNF-α mRNA, and other cytokines”.
